Results taken from the supplement of paper PMC10307832.

Assays:
Assay in all cases: relative viability (nuclei count vs DMSO), 5 days (fraction); higher = more cells survive
[1] = compound: CC(C)C[C@H](NC(=O)[C@H](CCc1ccccc1)NC(=O)CN1CCOCC1)C(=O)N[C@@H](Cc1ccccc1)C(=O)N[C@@H](CC(C)C)C(=O)[C@@]1(C)CO1 [Carfilzomib] + CCNC(=O)c1noc(-c2cc(C(C)C)c(O)cc2O)c1-c1ccc(CN2CCOCC2)cc1 [Luminespib] (partner 0.01 µM)
Outline: (§1)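 Relative viability equals treated-well nuclei counts divided by vehicle-well nuclei counts. Counts came from 4× images of lung cancer cell lines grown in 1536-well plates for 5 days after pin-tool dosing on the day after seeding. Dosing used one drug alone or a fixed anchor-drug dose plus five library-drug doses (not always all listed) in √10 steps, and values are medians of duplicate plates.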

[2] = compound: C[C@@H](Oc1cc(-c2cnn(C3CCNCC3)c2)cnc1N)c1c(Cl)ccc(F)c1Cl [Crizotinib] + COc1cccc2cc(-c3nc([C@H]4CC[C@H](C(=O)O)CC4)n4ncnc(N)c34)[nH]c12 [OSI-027] (partner 0.5 µM)
Outline: as §1

[3] = compound: O=C(c1cc(Cc2n[nH]c(=O)c3ccccc23)ccc1F)N1CCN(C(=O)C2CC2)CC1 [Olaparib] + CC1(C)CCC(c2ccc(Cl)cc2)=C(CN2CCN(c3ccc(C(=O)NS(=O)(=O)c4ccc(N[C@H](CCN5CCOCC5)CSc5ccccc5)c(S(=O)(=O)C(F)(F)F)c4)cc3)CC2)C1 [Navitoclax] (partner 0.5 µM)
Outline: as §1

[4] = compound: C[C@@H](Oc1cc(-c2cnn(C3CCNCC3)c2)cnc1N)c1c(Cl)ccc(F)c1Cl [Crizotinib] + O=C(CCCCCCC(=O)Nc1ccccc1)NO [Vorinostat] (partner 1 µM)
Outline: as §1

[5] = compound: C[C@@H](Oc1cc(-c2cnn(C3CCNCC3)c2)cnc1N)c1c(Cl)ccc(F)c1Cl [Crizotinib] + CS(=O)(=O)CCNCc1ccc(-c2ccc3ncnc(Nc4ccc(OCc5cccc(F)c5)c(Cl)c4)c3c2)o1 [Lapatinib] (partner 2 µM)
Outline: as §1

[6] = compound: C[C@@H](Oc1cc(-c2cnn(C3CCNCC3)c2)cnc1N)c1c(Cl)ccc(F)c1Cl [Crizotinib] + O=C(c1cc(Cc2n[nH]c(=O)c3ccccc23)ccc1F)N1CCN(C(=O)C2CC2)CC1 [Olaparib] (partner 8 µM)
Outline: as §1

**Q.** Which results are given for NCI-H1793?
**A.** relative viability ([1]; first compound 0.003162 µM): 0.216; relative viability ([1]; first compound 0.01 µM): 0.172; relative viability ([1]; first compound 0.03162 µM): 0.181; relative viability ([1]; first compound 0.1 µM): 0.154; relative viability ([2]; first compound 0.03162 µM): 0.256; relative viability ([2]; first compound 0.1 µM): 0.278; relative viability ([2]; first compound 1 µM): 0.266; relative viability ([3]; first compound 0.08 µM): 0.406; relative viability ([3]; first compound 0.253 µM): 0.421; relative viability ([3]; first compound 2.53 µM): 0.416; relative viability ([3]; first compound 8 µM): 0.385; relative viability ([4]; first compound 0.03162 µM): 0.765; relative viability ([4]; first compound 0.1 µM): 0.748; relative viability ([4]; first compound 1 µM): 0.896; relative viability ([5]; first compound 0.01 µM): 0.68; relative viability ([5]; first compound 0.03162 µM): 0.737; relative viability ([5]; first compound 0.1 µM): 0.749; relative viability ([5]; first compound 1 µM): 0.802; relative viability ([6]; first compound 0.1 µM): 0.835; relative viability ([6]; first compound 1 µM): 0.903
